Data reported in ChEMBL document CHEMBL4699612, “Discovery of thiosemicarbazone-containing compounds with potent anti-proliferation activity against drug-resistant K562/A02 cells” (Bioorg Med Chem Lett, 2020).

What was measured:
[1] = test system: K562; assay: Antiproliferative activity against human K562 cells by MTT assay; type: functional, cell-based
[2] = test system: K562/A02; assay: Antiproliferative activity against human K562/A02 cells overexpressing P-gp by MTT assay; type: functional, cell-based
[3] = Resistance index, ratio of IC50 for human K562/A02 cells to IC50 for human K562 cells; type: functional; parameters: reference not given here
[4] = molecular target: Histone deacetylase 1 (Homo sapiens, UniProt Q13547); assay: Inhibition of recombinant human HDAC1 using Boc-Lys(Ac)-AMC as substrate incubated for 60 mins by fluorimetric assay
Chain of Histone deacetylase 1 (Q13547 whole entry): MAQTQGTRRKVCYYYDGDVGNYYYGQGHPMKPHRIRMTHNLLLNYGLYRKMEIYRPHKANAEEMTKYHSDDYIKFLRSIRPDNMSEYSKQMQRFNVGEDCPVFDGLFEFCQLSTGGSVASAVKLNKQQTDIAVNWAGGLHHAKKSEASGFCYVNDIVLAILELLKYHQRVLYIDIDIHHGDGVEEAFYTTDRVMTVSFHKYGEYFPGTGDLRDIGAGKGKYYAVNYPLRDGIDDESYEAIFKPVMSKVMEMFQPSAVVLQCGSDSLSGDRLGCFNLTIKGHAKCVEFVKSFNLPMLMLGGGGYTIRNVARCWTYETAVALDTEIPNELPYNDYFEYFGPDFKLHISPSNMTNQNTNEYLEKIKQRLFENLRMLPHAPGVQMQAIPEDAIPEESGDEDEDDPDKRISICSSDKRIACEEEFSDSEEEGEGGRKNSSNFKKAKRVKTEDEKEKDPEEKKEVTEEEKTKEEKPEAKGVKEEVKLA

[5] = molecular target: T1, Protein deacetylase HDAC6 (Homo sapiens, UniProt Q9UBN7); assay: Inhibition of recombinant human HDAC6 using Boc-Lys(Ac)-AMC as substrate incubated for 60 mins by fluorimetric assay
T1 sequence (Q9UBN7 whole entry): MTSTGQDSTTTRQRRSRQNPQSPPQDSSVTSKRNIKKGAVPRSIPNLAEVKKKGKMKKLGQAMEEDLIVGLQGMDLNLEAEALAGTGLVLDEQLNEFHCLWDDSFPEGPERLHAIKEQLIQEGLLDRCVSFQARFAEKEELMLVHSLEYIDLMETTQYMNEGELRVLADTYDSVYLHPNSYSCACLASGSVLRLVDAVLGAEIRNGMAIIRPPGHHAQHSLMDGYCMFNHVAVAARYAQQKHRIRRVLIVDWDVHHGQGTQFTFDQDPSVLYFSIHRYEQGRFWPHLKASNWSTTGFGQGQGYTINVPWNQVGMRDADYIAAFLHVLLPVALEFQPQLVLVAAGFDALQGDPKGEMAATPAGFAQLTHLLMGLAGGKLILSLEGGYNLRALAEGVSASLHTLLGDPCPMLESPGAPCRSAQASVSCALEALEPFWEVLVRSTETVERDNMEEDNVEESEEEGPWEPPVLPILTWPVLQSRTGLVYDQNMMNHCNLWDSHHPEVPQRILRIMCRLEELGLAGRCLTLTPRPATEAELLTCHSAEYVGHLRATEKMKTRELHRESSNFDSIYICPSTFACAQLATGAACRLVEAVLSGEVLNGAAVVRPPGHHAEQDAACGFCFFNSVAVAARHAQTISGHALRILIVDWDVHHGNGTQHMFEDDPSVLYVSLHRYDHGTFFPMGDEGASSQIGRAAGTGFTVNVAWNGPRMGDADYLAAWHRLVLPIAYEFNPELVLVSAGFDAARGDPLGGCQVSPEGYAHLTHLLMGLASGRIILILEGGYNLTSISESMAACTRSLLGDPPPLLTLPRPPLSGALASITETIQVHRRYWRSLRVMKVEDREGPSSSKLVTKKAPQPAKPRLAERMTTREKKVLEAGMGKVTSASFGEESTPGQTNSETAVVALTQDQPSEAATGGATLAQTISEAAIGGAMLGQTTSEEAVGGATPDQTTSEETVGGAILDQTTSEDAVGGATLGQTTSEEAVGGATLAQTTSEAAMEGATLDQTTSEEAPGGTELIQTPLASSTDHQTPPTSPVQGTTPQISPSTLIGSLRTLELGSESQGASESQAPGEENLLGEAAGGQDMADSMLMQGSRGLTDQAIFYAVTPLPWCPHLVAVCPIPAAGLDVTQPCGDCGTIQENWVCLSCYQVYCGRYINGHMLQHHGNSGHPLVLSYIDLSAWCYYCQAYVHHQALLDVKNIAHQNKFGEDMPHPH

[6] = molecular target: T2, Histone deacetylase 8 (Homo sapiens, UniProt Q9BY41); assay: Inhibition of recombinant human HDAC8 using Boc-Lys(Ac)-AMC as substrate incubated for 60 mins by fluorimetric assay
T2 sequence (Q9BY41 whole entry): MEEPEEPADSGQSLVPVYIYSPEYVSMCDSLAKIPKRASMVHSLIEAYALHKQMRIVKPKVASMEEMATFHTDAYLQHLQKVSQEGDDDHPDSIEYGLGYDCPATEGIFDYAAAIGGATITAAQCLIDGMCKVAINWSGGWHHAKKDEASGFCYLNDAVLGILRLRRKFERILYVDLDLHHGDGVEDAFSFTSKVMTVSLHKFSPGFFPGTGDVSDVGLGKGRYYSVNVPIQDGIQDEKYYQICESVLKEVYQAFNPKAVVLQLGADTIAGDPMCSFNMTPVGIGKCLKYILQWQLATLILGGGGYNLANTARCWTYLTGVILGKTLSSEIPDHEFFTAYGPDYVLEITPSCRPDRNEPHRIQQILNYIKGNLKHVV

Compound | IC50 [1] | IC50 [2] | Ratio IC50 [3] | IC50 [4] | IC50 [5] | IC50 [6]
O=C(CCCCCNC(=S)N/N=C(\c1ccccc1)c1ccccc1[N+](=O)[O-])NO | 2330 nM | 1310 nM | 0.56 |  |  | 
CN(C)C(=S)NN=C(c1ccccn1)c1ccccn1 | 3430 nM | 3020 nM | 0.88 | > 5000 nM | > 5000 nM | > 5000 nM
Cc1ccccc1/C(=N/NC(=S)NCCCCCC(=O)NO)c1ccccc1 | 3510 nM | 4220 nM | 1.2 |  |  | 
O=C(CCCCCNC(=S)N/N=C(\c1ccccc1)c1cccc([N+](=O)[O-])c1)NO | 1630 nM | 940 nM | 0.58 | 71.1 nM | 46.8 nM | > 5000 nM
COc1cccc(/C(C)=N/NC(=S)NCCCCCC(=O)NO)c1 | 1910 nM | 1890 nM | 0.98 |  |  | 
C/C(=N\NC(=S)NCCCC(=O)NO)c1cccc([N+](=O)[O-])c1 | > 10000 nM | > 10000 nM |  |  |  | 
COc1ccccc1/C(C)=N/NC(=S)NCCCC(=O)NO | > 10000 nM | > 10000 nM |  |  |  | 
C/C(=N\NC(=S)NCCCCCC(=O)NO)c1cccc(C(F)(F)F)c1 | 1400 nM | 890 nM | 0.64 |  |  | 
O=C(CCCCCNC(=S)N/N=C(\c1ccccc1)c1ccc([N+](=O)[O-])cc1)NO | 2890 nM | 4530 nM | 1.57 |  |  | 
O=C(CCCCCNC(=S)NN=C(c1ccccn1)c1ccccn1)NO | 2870 nM | 2180 nM | 0.76 |  |  | 
C/C(=N\NC(=S)NCCCC(=O)NO)c1ccc([N+](=O)[O-])cc1 | > 10000 nM | > 10000 nM |  |  |  | 
C/C(=N\NC(=S)NCCCCCC(=O)NO)c1cccc(Br)c1 | 1260 nM | 520 nM | 0.41 | 54.6 nM | 37.7 nM | > 5000 nM
